Data on eleven compounds can be found in ChEMBL document CHEMBL1145291, “Metal complexes with superoxide dismutase-like activity as candidates for anti-prion drug” (Bioorg Med Chem Lett, 2006).

Data set [1] in a line: Inhibition of PrP-res formation in prion Fukuoka1 strain infected mouse N2a#58 cells relative to control. Format: functional.
In data set [2] the test system is ScN2a. The data set is described as follows: Inhibition of PrP-res formation in mouse ScN2a cells relative to control. Type of data set: functional, cell-based.
For data set [3], the system named is ScN2a. The data set is described as follows: Cytotoxicity against mouse ScN2a cells at 100 uM. Type of data set: cell-based.
Data set [4] is described as follows: Cytotoxicity against prion Fukuoka1 strain infected mouse N2a#58 cells at 100 uM. Type of data set: cell-based.
Data set [5] in a line: Cytotoxicity against prion Fukuoka1 strain infected mouse N2a#58 cells up to 1uM. Format: cell-based.
For data set [6], the system named is ScN2a. The data set is described as follows: Cytotoxicity against mouse ScN2a cells up to 1 uM. Type of data set: cell-based.

The structures appear in SMILES notation.

`C1=Cc2nc1c(-c1ccccc1)c1nc(c(-c3ccccc3)c3ccc([nH]3)c(-c3ccccc3)c3ccc([nH]3)c2-c2ccccc2)C=C1` [TETRAPHENYLPORPHYRIN]: the half-maximal inhibitory concentration (IC50) in data set [1] was found to be 320 nM; in the data set on ScN2a [2] it was 10 nM.
Take `C[n+]1ccc(-c2c3nc(c(-c4cc[n+](C)cc4)c4ccc([nH]4)c(-c4cc[n+](C)cc4)c4nc(c(-c5cc[n+](C)cc5)c5ccc2[nH]5)C=C4)C=C3)cc1`: the figures for the IC50 (in data set [1]; in the data set with ScN2a [2]) were 160 nM and 130 nM, respectively.
With `c1ccc(-c2cccc(-c3ccccn3)n2)nc1` [TERPYRIDINE], the result (in the data set with ScN2a [3]; in data set [4]) was Active.
In turn, `Cc1ccc2ccc3ccc(C)nc3c2n1` [NEOCUPROINE] came in with a 50% inhibitory concentration (IC50) with ScN2a [2] of 80 nM. Besides, the Activity entry (in data set [5]; with ScN2a [6]) was “Not Active” each time.
As to `Cc1cc(-c2ccccc2)c2ccc3c(-c4ccccc4)cc(C)nc3c2n1` [BATHOCUPROINE], the half-maximal inhibitory concentration (IC50) in data set [1] was 200 nM; in the data set with ScN2a [2], 80 nM. In addition, the Activity entry (in data set [5]; in the data set with ScN2a [6]) was “Not Active” in each case.
`O=C([O-])c1cc(-c2cc(C(=O)[O-])c3ccccc3n2)nc2ccccc12.[Na+].[Na+]`: the Activity result (in data set [5]; with ScN2a [6]) was “Not Active” throughout.
For the compound `O=C(O)c1ccc(-c2c3nc(c(-c4ccc(C(=O)O)cc4)c4ccc([nH]4)c(-c4ccc(C(=O)O)cc4)c4ccc([nH]4)c(-c4ccc(C(=O)O)cc4)c4nc2C=C4)C=C3)cc1`, the 50% inhibitory concentration (IC50) in data set [1] stood at 160 nM; in the data set with ScN2a [2] it was 250 nM.
On to `c1ccc2cc(-c3ccc4ccccc4n3)ncc2c1`, for which the figures for the half-inhibitory concentration (IC50) (in data set [1]; with ScN2a [2]) were 250 nM and 5 nM, respectively. For the same compound, the Activity entry (in data set [5]; in the data set with ScN2a [6]) was “Not Active” in each case.
For `O=S(=O)(O)c1ccc(-c2c3nc(c(-c4ccc(S(=O)(=O)O)cc4)c4ccc([nH]4)c(-c4ccc(S(=O)(=O)O)cc4)c4ccc([nH]4)c(-c4ccc(S(=O)(=O)O)cc4)c4nc2C=C4)C=C3)cc1` [TETRAPHENYLPORPHINE TETRASULFONIC ACID], the IC50 came out at 160 nM in data set [1] and 200 nM in the data set with ScN2a [2].
`c1cnc2c(c1)ccc1cccnc12` [PHENANTHROLINE]: the outcome (with ScN2a [3]; in data set [4]) was Active.
Regarding `Oc1cccc2cccnc12` [OXYQUINOLINE], the result (with ScN2a [3]; in data set [4]) was Active.

The IC50 is the midpoint of a concentration-inhibition curve. A lower IC50 goes with greater potency in that assay.
